From ChEMBL document CHEMBL1240398, “Surveillance and correlation of antibiotic prescription and resistance of Gram-negative bacteria in Singaporean hospitals” (2010)

Tests used:
Format in all cases: functional
Klebsiella pneumoniae [1] = assay: Antimicrobial activity against Klebsiella pneumoniae clinical isolate assessed as resistance isolates by disk diffusion method
Klebsiella pneumoniae [2] = assay: Antimicrobial activity against Klebsiella pneumoniae isolate obtained from patient's blood assessed as resistance isolates by disk diffusion method
Escherichia coli [3] = assay: Antimicrobial activity against Escherichia coli isolate obtained from patient's blood assessed as resistance isolates by disk diffusion method
Escherichia coli [4] = assay: Antimicrobial activity against Escherichia coli clinical isolate assessed as resistance isolates by disk diffusion method
Pseudomonas aeruginosa [5] = assay: Antimicrobial activity against Pseudomonas aeruginosa isolate obtained from patient's blood assessed as resistance isolates by disk diffusion method
Acinetobacter sp. [6] = assay: Antimicrobial activity against Acinetobacter sp. isolate obtained from patient's blood assessed as resistance isolates by disk diffusion method
Pseudomonas aeruginosa [7] = assay: Antimicrobial activity against Pseudomonas aeruginosa clinical isolate assessed as resistance isolates by disk diffusion method
Acinetobacter sp. [8] = assay: Antimicrobial activity against Acinetobacter sp. clinical isolate assessed as resistance isolates by disk diffusion method

Row | Compound | Activity (Klebsiella pneumoniae [1]) | Activity (Klebsiella pneumoniae [2]) | Activity (Escherichia coli [3]) | Activity (Escherichia coli [4]) | Activity (Pseudomonas aeruginosa [5]) | Activity (Acinetobacter sp. [6]) | Activity (Pseudomonas aeruginosa [7]) | Activity (Acinetobacter sp. [8])
1 | CO/N=C(\C(=O)N[C@@H]1C(=O)N2C(C(=O)O)=C(CSc3nc(=O)c(O)nn3C)CS[C@H]12)c1csc(N)n1 [CEFTRIAXONE] | 32.3% | 27.4% | 21.7% | 20% |  |  |  | 
2 | C[C@@H](O)[C@H]1C(=O)N2C(C(=O)O)=C(SCCNC=N)C[C@H]12 [IMIPENEM ANHYDROUS] |  |  |  |  | 12.8% | 50% | 7.5% | 46.2%
3 | O=C(O)c1cn(C2CC2)c2cc(N3CCNCC3)c(F)cc2c1=O [CIPROFLOXACIN] |  | 24% | 31% |  |  |  |  | 
